Key:
[1] = system: Puccinia recondita; test: Fungicidal activity against wheat leaf rust (WLR) disease; type: in vivo; details: for C. V. (%) WLR: 50 ppm, control value, wheat leaf rust; for C. V. (%), Fungicidal Activities against WLB at 10 ppm: Table 8 (Test Example 5)
[2] = system: Phytophthora infestans; type: in vivo; details: 50 ppm; control value, tomato late blight
[3] = system: Pyricularia oryzae Carvara KA301; type: in vivo; details: for C. V. (%) RCB: 50 ppm, control value, rice blast; for C. V. (%) Fungicidal Activities against RCB at 10 ppm / C. V. (%) Fungicidal Activities against RCB at 10 ppm (TABLE 6): sprayed on Nakdong rice plant, control value from lesion area
[4] = system: Rhizoctonia solani AG-1; test: Fungicidal activity against rice sheath blight (RSB) disease; details: 50 ppm, control value
[5] = system: Erysiphae graminis; test: Fungicidal activity against barley powdery mildew (BPM) disease; type: in vivo; details: for C. V. (%) BPM: 50 ppm, control value, barley powdery mildew; for C. V. (%), Fungicidal activities against TLB at 10 ppm: Table 9 (Test Example 6)
Protocol: Erysiphae graminis was subcultured on a wheat plant in a laboratory. 15 g of barley seeds was sowed in a pot (diameter 6.5 cm) and cultured in a greenhouse for 7 days to obtain a barley plant having only a primary leaf. The barley plant was inoculated with spores by shaking thereover another plant infected by BPM. The inoculated barley plant was cultured in an incubator maintained at a temperature of 22 to 24° C. and a relative humidity of 50% for 7 days to induce BPM. L.A. on the leaf was measured to calculate an C.V.

[6] = system: Botrytis cinerae; test: Fungicidal activity against cucumber gray mold rot (CGM) disease; type: in vivo; details: 50 ppm, control value
Protocol: Botrytis cinerae, which was isolated from cucumber infected thereby, was inoculated on a PDA agar medium and cultured under a 12L/12D cycle at 25° C. for 15 days to form spore. The spores were scraped, filtered through a gauze and then suspended in potato dextrose liquid medium at a concentration of 1×10^6 spore/ml. The spore suspension was sprayed on a cucumber plant having one leaf. The cucumber plant was held in a humidified room at 20° C. for 3 days. L.A. on a leaf was measured to calculate an C.V.

Structure (SMILES)	C. V. (%) WLR [1] [%]	C. V. (%) TLB [2] [%]	C. V. (%) RCB [3] [%]	C. V. (%) RSB [4] [%]	C. V. (%) BPM [5] [%]	C. V. (%) CGM [6] [%]	C. V. (%), Fungicidal Activities against WLB at 10 ppm [1] [%]	C. V. (%), Fungicidal activities against TLB at 10 ppm [5] [%]	C. V. (%) Fungicidal Activities against RCB at 10 ppm [3] [%]	C. V. (%) Fungicidal Activities against RCB at 10 ppm (TABLE 6) [3] [%]
CON=C(C(=O)OC)c1ccccc1COc1cccc(OC(F)=Cc2ccc(Oc3ccccc3)cc2)c1 [Compound 33]	83	10	20	5	94	20	–	–	–	–
CON=C(C(=O)OC)c1ccccc1COc1cccc(OC(F)=C(c2cccc(OC)c2)C(F)(F)F)c1 [Compound 73]	98	60	93	92	93	9	96	88	–	–
CNC(=O)C(=NOC)c1ccccc1COc1cccc(OC(F)=C(c2cccc(OC)c2)C(F)(F)F)c1 [Compound 74]	100	64	100	70	100	52	100	100	93	93
CNC(=O)C(=COC)c1ccccc1COc1cccc(OC(F)=C(c2ccc(C)cc2)C(F)(F)F)c1 [Compound 54]	16	20	16	20	41	9	–	–	–	–
COC=C(C(=O)OC)c1ccccc1COc1cccc(OC(F)=C(c2cccc(Cl)c2)C(F)(F)F)c1 [Compound 84]	100	81	90	25	100	16	97	100	95	95
CON=C(C(=O)OC)c1ccccc1COc1cccc(OC(F)=Cc2ccccc2)c1 [Compound 3]	93	70	100	70	41	15	–	–	–	–
CON=C(C(=O)OC)c1ccccc1COc1cccc(OC(F)=Cc2ccc(OC)cc2)c1 [Compound 31]	93	84	93	30	50	0	–	–	–	–
COC=C(C(=O)OC)c1ccccc1COc1cccc(OC(F)=C(c2ccc(F)cc2)C(F)(F)F)c1 [Compound 96]	100	62	90	67	100	33	97	100	95	95
CNC(=O)C(=COC)c1ccccc1COc1cccc(OC(F)=Cc2cccc(OC)c2)c1 [Compound 26]	70	55	20	35	88	0	–	–	–	–
COC=C(C(=O)OC)c1ccccc1COc1cccc(OC(F)=C(c2ccc(Cl)cc2)C(F)(F)F)c1 [Compound 88]	98	31	92	25	100	25	93	100	–	–
CNC(=O)C(=COC)c1ccccc1COc1cccc(OC(F)=C(c2ccc(OC)cc2)C(F)(F)F)c1 [Compound 75]	0	33	0	40	0	0	–	–	–	–
CON=C(C(=O)OC)c1ccccc1COc1cccc(OC(F)=C(c2ccc3c(c2)OCO3)C(F)(F)F)c1 [Compound 82]	98	0	50	45	100	0	96	97	–	–
CON=C(C(=O)OC)c1ccccc1COc1cccc(OC(F)=C(c2cccc(Cl)c2)C(F)(F)F)c1 [Compound 86]	100	22	90	90	100	27	96	95	–	–
CON=C(C(=O)OC)c1ccccc1COc1cccc(OC(F)=Cc2ccc(C)cc2)c1 [Compound 12]	93	84	100	80	94	27	97	96	–	–
COC=C(C(=O)OC)c1ccccc1COc1cccc(OC(F)=Cc2ccc(Cl)cc2)c1 [Compound 37]	98	93	95	45	98	58	97	100	100	100
CNC(=O)C(=NOC)c1ccccc1COc1cccc(OC(F)=C(c2ccc(OC)cc2)C(F)(F)F)c1 [Compound 77]	100	82	99	60	100	11	100	100	96	96
COC=C(C(=O)OC)c1ccccc1COc1cccc(OC(F)=C(c2ccc3c(c2)OCO3)C(F)(F)F)c1 [Compound 81]	100	33	86	65	100	0	100	100	–	–
CNC(=O)C(=NOC)c1ccccc1COc1cccc(OC(F)=C(c2ccc(Cl)cc2)C(F)(F)F)c1 [Compound 91]	100	64	99	90	100	17	100	100	99	99
CCOc1ccc(C(=C(F)Oc2cccc(OCc3ccccc3C(=COC)C(=O)OC)c2)C(F)(F)F)cc1 [Compound 78]	98	0	0	40	100	0	97	100	–	–
COC(=O)C(=CSC)c1ccccc1COc1cccc(OC(F)=Cc2ccccc2)c1 [Compound 4]	85	86	90	75	91	33	–	–	–	–
CNC(=O)C(=COC)c1ccccc1COc1cccc(OC(F)=Cc2cccc(C)c2)c1 [Compound 7]	0	46	26	10	0	33	–	–	–	–
CNC(=O)C(=COC)c1ccccc1COc1cccc(OC(F)=Cc2cc(C)cc(C)c2)c1 [Compound 18]	0	6	26	5	0	21	–	–	–	–
CNC(=O)/C(=C/OC)c1ccccc1COc1cccc(OC(F)=Cc2ccccc2)c1 [Compound 2, (2E)-N-methyl-3-methoxy-2-{2′-{3″-(2′″-fluorostyryl)-2′″-oxy}phenoxymethyl}phenyl-2-propenamide]	96	74	100	50	86	84	–	–	–	–
